{"source": "patent US20160039852A1", "about": "“THERAPEUTIC USES OF BISPHOSPHONATES” (THE UNIVERSITY OF SHEFFIELD, priority 2013, published 2016)", "key": {"[1]": {"tested_on": "human mesenchymal stem cells (hMSC)", "test": "Expression of osteogenic and adipogenic differentiation markers in hMSC", "type": "cell-based", "conditions": "CBFA-1, OPN, ALP, OC, LPL, PPAR-γ normalised to L-32; 14 days supplements"}, "[2]": {"tested_on": "human mesenchymal stem cells (hMSC)", "test": "Immunostaining of γH2AX DNA damage foci (double stranded breaks) in hMSC", "type": "cell-based", "procedure": "DNA damage was induced by exposing hMSC to ^137Cs Gamma source. Cells were washed with PBS and fixed with 4% Para-formaldehyde for […]. Cells were then washed with PBS permeabilized with 0.5% Triton-X (Sigma, UK) for […] and blocked with 5% normal goat serum (DAKO, Glostrup, Denmark) in PBS for 1 hr. This was followed by incubation with primary antibody, anti-phospho histone H2AX (Ser139) (Millipore, Massachusetts, USA) used at 1:800 in 5% normal goat serum, overnight at 4° C. Cells were then washed in PBS and incubated in secondary Anti mouse IgG Fluorescein Isothiocyanate (FITC) conjugated (Insight Biotechnology, Santa Cruz, USA) at 1:200 in PBS for 1 hour at room temperature. The cover-slips were mounted on slides with mounting media (VectaShield) containing 4',6-diamidino-2-phenylindole (DAPI) to stain the nuclei. […] Cells were viewed using in an Inverted Zeiss LSM 510 NLO microscope equipped with Argon (Ar) laser (488 nm) 30 mW to image the fluorescent marker FITC and UV lamp to image DAPI stained nuclei. Five to seven fields consisting of 25 cells in total were randomly selected from a tile scan (20×) and individual cells viewed at 63× were then scored for γH2AX DNA damage foci using ImageJ 1.45 software (http://rsbweb.nih.gov/ij/). One of the factors affecting cellular lifespan is accumulation of DNA damage."}, "[3]": {"tested_on": "intestinal crypt and villi", "test": "Murine intestine regeneration following irradiation", "type": "in vivo, C57BL6/J mice", "conditions": "Zol 125 μg/kg i.p. 3 days prior to 9Gy", "procedure": "Mice (C57BL6/J) were injected with either Zoledronate (single dose, i.p.,125 μg/kg) or PBS. On day 3 post-injection, Mice were exosed to whole body irradiation (9Gy; n=3/group) using 137Cs Gamma source. Within 24 hours from irradiation systemic bone marrow transplantation was performed to prevent myelotoxicity. mice were sacrificed 4 days post-irradiation for histological analysis of\nIntestinal tissue. At the time of harvest this was divided with a scalpel into duodenum, ileum-jejunum, colon and rectum, and each region was further cut into 0.5 cm pieces that were placed in histological cassettes and stored in 70% ethanol prior to embedding. Tissues were paraffin embedded and sectioned at 3-5 μm thickness and mounted onto […] coated glass microscope slides. The slides were de-waxed in xylene (BDH, Leister, UK) and rehydrated by passing through a series of ethanol dilutions. The nuclei were stained by placing in Gill's haematoxylin (Sigma, Poole, UK), washed with water followed by staining of cytoplasm in alcoholic eosin (Sigma, Poole, UK) and washed. Slides were dehydrated through a series of graded alcohols and cleared in xylene for 3 minutes prior to mounting with DPX and coverslip to examine under microscope. Stained tissue sections were scanned on the Aperio Slide Scanner (Leica Biosystems, Newcastle, UK). To obtain villi length and crypt depth, images were analysed on the Aperio ImageScope Software (v11.2.0.780) and using the ruler tool, measurements were taken on a surface of 0.525 mm^2 at 3 different levels."}, "[4]": {"tested_on": "mTOR pathway", "test": "Western blot of mTOR pathway effectors in osteosarcoma line MG63", "type": "cell-based, human", "conditions": "MG63, Zol (1 μM) for 72 h, n=3", "procedure": "(B) A representative example of human mesenchymal stem cells (MSC) and human osteosarcoma cell line MG63 cultured in presence or absence of Zol (1 μM) for 72 h and assessed for the expression of phosphorylated (Ser 473) AKT, AKT, phosphorylated p70S6K p70S6K and GAPDH by western blot;\nProtein lysates (50 μg) were diluted in equal volume of 2× Laemmli buffer (Gibco) containing Dithiothreitol (DTT, Sigma,UK). The samples were heated at 95° C. for 5 minutes and loaded on a 12% Tris-glycine gel. After electro-blotting, membranes were blocked with 5% Bovine serum albumin (BSA) in 0.1% Tween 20 in PBS (PBS-T) for detection of glyceraldehyde-3-phosphate dehydrogenase (GAPDH) and 5% dry milk in PBS-T for detection of unprenylated RAP1A (Santacruz Biotechnology, Santa Cruz, USA). […] Detection was carried out using enhanced chemi-luminescence plus ECL reaction kit (GE Healthcare, Buckinghamshire, UK) and quantification of protein expression was carried out using image J software.\nTo test this, the inventors assessed the phosphorylation state of two effectors downstream of TORC1 and TORC2, p-P70S6K and pAKT (Ser473) respectively (FIG. 7A), in hMSC in presence or absence of Zol. […]"}, "[5]": {"tested_on": "human mesenchymal stem cells (hMSC)", "test": "Colony Forming Unit-Fibroblast assay (CFU-F), clonogenic ability of hMSC", "type": "cell-based", "conditions": "14 days, listed as Zol", "procedure": "Human MSC from established cultures were plated at 10 cells/cm^2 in duplicates in MSC medium. The plates were incubated for 14 days at 37° C. in 5% carbon dioxide in air. At day 14 cultures were stained with Wright's Giemsa stain (VWR International, Leicestershire, UK). Briefly, media was aspirated and the plates were washed with PBS (Gibco). The plates were air dried for 5 minutes and fixed with methanol (Fisher Scientific, Loughborough, UK) for 5 minutes. Wright's Geimsa stain (VWR International) was thereafter added to the plates for 5 minutes and then plates were washed under running tap water. The purple stained colonies were counted using an inverted light microscope (Leica Microsystems, UK). Colonies containing a minimum of 50 cells were considered as one Colony forming unit-fibroblast (CFU-F)."}, "[6]": {"conditions": "assessed 4 days later, n=3/group"}}, "note": "Entries after “also recorded” stand apart in the source; their conditions may differ.", "data": [{"smiles": "O=P(O)(O)C(O)(Cn1ccnc1)P(=O)(O)O", "note": "[Zoledronate]", "values": [{"measurement": "expression of osteogenic and adipogenic differentiation markers", "setting": "[1]", "result": "increased"}, {"measurement": "DNA repair (γH2AX DNA damage foci), FIG. 9", "setting": "[2]; 1 μM, 4 hours after irradiation, Compound C compared with Zol", "result": "significant decrease"}, {"measurement": "number of γH2AX DNA damage foci after irradiation", "setting": "[2]; 1Gy irradiation, compound at 1 μM, foci at 4 h (Zol also 12, 24 h) versus PBS, listed as Zol", "result": "significant decrease; also recorded: significant reduction"}, {"measurement": "number of γH2AX DNA damage foci after irradiation", "setting": "[2]; 3 and 5Gy irradiation (data not shown)", "result": "significant decrease"}, {"measurement": "number of γH2AX DNA damage foci, dose response", "setting": "[2]; increasing dosing with Zol", "result": "reduced number of DNA damage foci"}, {"measurement": "incidence of DNA damage foci with passage", "setting": "[2]; passage 3 (early) and p10 (late), no irradiation, listed as Zol", "result": "significantly higher in untreated hMSC; also recorded: reduced"}, {"measurement": "protection of intestinal crypt and villi following irradiation", "setting": "[3]", "result": "protects intestinal crypt and villi"}, {"measurement": "intestinal crypt depth", "setting": "[3]; [6]", "result": "improved"}, {"measurement": "villi length", "setting": "[3]; [6]", "result": "improved"}, {"measurement": "p-P70S6K", "setting": "[4]", "result": "no significant difference"}, {"measurement": "pAKT (Ser473)", "setting": "[4]", "result": "no significant difference"}, {"measurement": "number of clonogenic progenitors (CFU-F)", "setting": "[5]; hMSC at passage 8, not irradiated, versus PBS control", "result": "significant increase; also recorded: higher clonogenic ability"}, {"measurement": "number of CFU-F after irradiation (clonogenic ability)", "setting": "[5]; hMSC irradiated at 1, 3 and 5Gy versus non irradiated, in presence of Zol", "result": "no significant difference; also recorded: complete rescue of the clonogenic ability"}]}]}
